Patent US10689383B2, “Optionally fused heterocyclyl-substituted derivatives of pyrimidine useful for the treatment of inflammatory, metabolic, oncologic and autoimmune diseases” (NUEVOLUTION A/S, priority 2014, dated 2020)

Columns and labels:
[1] = biological target: T1, human RORγt (Ligand Binding Domain) (Homo sapiens, UniProt P51449); test: Fluorescence Polarization (FP) Assay; details: Fluorescence Polarization (FP) Assay; values given as upper bounds of activity ranges; read-out: FP activity range
T1 construct: purchased Crelux (Planegg, Germany) batch no PC5032-1
T1 sequence (P51449 269-508 limits assumed): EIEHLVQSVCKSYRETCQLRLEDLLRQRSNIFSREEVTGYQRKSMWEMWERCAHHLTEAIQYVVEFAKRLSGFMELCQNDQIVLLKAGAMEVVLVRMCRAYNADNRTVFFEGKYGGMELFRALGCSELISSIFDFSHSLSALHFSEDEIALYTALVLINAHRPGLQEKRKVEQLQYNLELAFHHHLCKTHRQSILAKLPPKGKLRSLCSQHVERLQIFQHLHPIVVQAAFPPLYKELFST
Procedure, shortened: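 Binding to the ligand pocket followed by fluorescence polarization with a TAMRA-tagged RORγt ligand probe of 910 g/mole. Negative control wells received DMSO only.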

[2] = biological target: T2, yeast Gal4-DNA binding domain fused to the ligand binding domain of human RORγ (Homo sapiens, UniProt P51449); test: RORγ Reporter Assay (Gal4); type: cell-based; details: values given as lower bounds of ranges; for Gal4 activity range @ 0.1 μM (% inhibition): RORγ Reporter Assay (Gal4) at 0.1 μM; for Gal4 activity range @ 1 μM (% inhibition): RORγ Reporter Assay (Gal4) at 1 μM
T2 construct: host or cells: HEK293t
T2 sequence (P51449 269-508 limits assumed): T1 sequence (P51449 269-508 limits assumed)
Procedure, shortened: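 Compound at final 1,000 or 100 nM (0.1% DMSO, triplicate) was added to the transfected HEK293t cells carrying a Gal4-UAS luciferase reporter for 24 h at 37 °C, 10% charcoal-stripped FBS. Activity reduction expressed as percent of vehicle-only luciferase signal.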

SMILES	IC50 [1]	Gal4 activity range @ 0.1 μM (% inhibition) [2]	Gal4 activity range @ 1 μM (% inhibition) [2]
NC(=O)Cc1ccc(Cn2ccc3c(N4CCOC[C@@H]4c4ccc(OC(F)(F)F)cc4)ncnc32)cc1 [Example 252, 2-[4-[[4-[(3S)-3-[4-(trifluoromethoxy)phenyl]morpholin-4-yl]pyrrolo[2,3-d]pyrimidin-7-yl]methyl]phenyl]acetamide]	< 500 nM	>80 % inhibition	>80 % inhibition
NC(=O)Cc1ccc(CNc2ncnc(N3CCOC[C@@H]3c3ccc(OC(F)(F)F)cc3F)c2F)cc1 [Example 258, 2-[4-[[[5-fluoro-6-[(3S)-3-[2-fluoro-4-(trifluoromethoxy)phenyl]morpholin-4-yl]pyrimidin-4-yl]amino]methyl]phenyl]acetamide]	< 500 nM	>80 % inhibition	>80 % inhibition
Fc1c(NCC2CCOCC2)ncnc1N1CC(F)(F)CC1c1ccc(C(F)(F)F)cc1 (stereo not drawn) [Example 259, 6-[4,4-difluoro-2-[4-(trifluoromethyl)phenyl]pyrrolidin-1-yl]-5-fluoro-N-(tetrahydropyran-4-ylmethyl)pyrimidin-4-amine]	< 500 nM	>50 % inhibition	>80 % inhibition
OCC1(CNc2ncnc(N3CC(F)(F)CC3c3ccc(C(F)(F)F)cc3)c2F)COC1 (stereo not drawn) [Example 261, [3-[[[6-[4,4-difluoro-2-[4-(trifluoromethyl)phenyl]pyrrolidin-1-yl]-5-fluoro-pyrimidin-4-yl]amino]methyl]oxetan-3-yl]methanol]	< 1000 nM	>20 % inhibition	>80 % inhibition
O=S(=O)(N1CCC(CNc2ncnc(N3CCOC[C@@H]3c3ccc(C(F)(F)F)cc3)c2F)CC1)C(F)(F)F [Example 263, 5-fluoro-6-[(3S)-3-[4-(trifluoromethyl)phenyl]morpholin-4-yl]-N-[[1-(trifluoromethylsulfonyl)-4-piperidyl]methyl]pyrimidin-4-amine]	< 500 nM	>50 % inhibition	>80 % inhibition
NC(=O)Cc1ccc(CN2CCc3c2ncnc3N2CCC[C@@H]2c2ccc(C(F)(F)F)cc2)cc1 [Example 265, 2-[4-[[4-[(2R)-2-[4-(trifluoromethyl)phenyl]pyrrolidin-1-yl]-5,6-dihydropyrrolo[2,3-d]pyrimidin-7-yl]methyl]phenyl]acetamide]	< 500 nM	>80 % inhibition	>80 % inhibition
CS(=O)(=O)N[C@H]1CC[C@H](CNc2ncnc(N3CCOC[C@@H]3c3ccc(OC(F)(F)F)cc3)c2F)CC1 [Example 267, N-[4-[[[5-fluoro-6-[(3S)-3-[4-(trifluoromethoxy)phenyl]morpholin-4-yl]pyrimidin-4-yl]amino]methyl]cyclohexyl] methanesulfonamide]	< 500 nM	>80 % inhibition	>80 % inhibition
O=S(=O)(NC1CC1)c1ccc(CNc2ncnc(N3CCOCC3c3ccccc3)c2F)cc1 (stereo not drawn) [Example 273, N-cyclopropyl-4-[[[5-fluoro-6-(3-phenylmorpholin-4-yl)pyrimidin-4-yl]amino]methyl] benzenesulfonamide]	< 500 nM	>20 % inhibition	>80 % inhibition
CS(=O)(=O)N1CCC(CNc2ncnc(N3CCOCC3c3ccccc3)c2F)CC1 (stereo not drawn) [Example 274, 5-fluoro-N-[(1-methylsulfonyl-4-piperidyl)methyl]-6-(3-phenylmorpholin-4-yl)pyrimidin-4-amine]	< 2000 nM	>20 % inhibition	>50 % inhibition
O=C(O)Cc1ccc(CNc2ncnc(N3CCOCC3c3ccccc3)c2F)cc1 (stereo not drawn) [Example 276, 2-[4-[[[5-fluoro-6-(3-phenylmorpholin-4-yl)pyrimidin-4-yl]amino]methyl]phenyl]acetic acid]	< 2000 nM	>0 % inhibition	>20 % inhibition
NC(=O)Cc1ccc(CNc2ncnc(N3CC(=O)CC3c3ccc(C(F)(F)F)cc3)c2F)cc1 (stereo not drawn) [Example 280, 2-[4-[[[5-fluoro-6-[4-oxo-2-[4-(trifluoromethyl)phenyl]pyrrolidin-1-yl]pyrimidin-4-yl]amino]methyl]phenyl]acetamide]	< 500 nM	>0 % inhibition	>20 % inhibition
O=C(O)Cc1ccc(CNc2ncnc(N3CCOCC3c3ccccc3)c2F)s1 (stereo not drawn) [Example 282, 2-[5-[[[5-fluoro-6-(3-phenylmorpholin-4-yl)pyrimidin-4-yl]amino]methyl]-2-thienyl]acetic acid]	< 10000 nM	>0 % inhibition	>0 % inhibition
NC(=O)Cc1ccc(CNc2ncnc(N3CCOCC3c3ccccc3)c2F)s1 (stereo not drawn) [Example 283, 2-[5-[[[5-fluoro-6-(3-phenylmorpholin-4-yl)pyrimidin-4-yl]amino]methyl]-2-thienyl]acetamide]	< 1000 nM	>0 % inhibition	>20 % inhibition
NC(=O)Cc1ccc(Cn2ccc3c(N4CCOCC4c4ccccc4)ncnc32)cc1 (stereo not drawn) [Example 284, 2-[4-[[4-(3-phenylmorpholin-4-yl)pyrrolo[2,3-d]pyrimidin-7-yl]methyl]phenyl]acetamide]	< 500 nM	>20 % inhibition	>50 % inhibition

The next lines start with the values.

IC50 [1]	Gal4 activity range @ 0.1 μM (% inhibition) [2]	Gal4 activity range @ 1 μM (% inhibition) [2]	SMILES
< 1000 nM	>50 % inhibition	>80 % inhibition	CS(=O)(=O)CC1(CNc2ncnc(N3CCOC[C@@H]3c3ccc(C(F)(F)F)cc3)c2F)CCOCC1 [Example 253, 5-fluoro-N-[[4-(methylsulfonylmethyl)tetrahydropyran-4-yl]methyl]-6-[(3S)-3-[4-(trifluoromethyl)phenyl]morpholin-4-yl]pyrimidin-4-amine]
< 500 nM	>50 % inhibition	>80 % inhibition	COC(=O)C1(CNc2ncnc(N3CCOCC3c3ccc(C(F)(F)F)cc3)c2F)CCOCC1 (stereo not drawn) [Example 254, methyl 4-[[[5-fluoro-6-[3-[4-(trifluoromethyl)phenyl]morpholin-4-yl]pyrimidin-4-yl]amino]methyl]tetrahydropyran-4-carboxylate]
< 2000 nM	>20 % inhibition	>50 % inhibition	NC(=O)C1(CNc2ncnc(N3CCOC[C@@H]3c3ccc(C(F)(F)F)cc3)c2F)CCOCC1 [Example 255, 4-[[[5-fluoro-6-[(3S)-3-[4-(trifluoromethyl)phenyl]morpholin-4-yl]pyrimidin-4-yl]amino]methyl]tetrahydropyran-4-carboxamide]
< 500 nM	>50 % inhibition	>80 % inhibition	N#CC1(CNc2ncnc(N3CCOC[C@@H]3c3ccc(C(F)(F)F)cc3)c2F)CCOCC1 [Example 257, 4-[[[5-fluoro-6-[(3S)-3-[4-(trifluoromethyl)phenyl]morpholin-4-yl]pyrimidin-4-yl]amino]methyl]tetrahydropyran-4-carbonitrile]
< 500 nM	>50 % inhibition	>80 % inhibition	CS(=O)(=O)CC1(CNc2ncnc(N3CC(F)(F)CC3c3ccc(C(F)(F)F)cc3)c2F)CCOCC1 (stereo not drawn) [Example 260, 6-[4,4-difluoro-2-[4-(trifluoromethyl)phenyl]pyrrolidin-1-yl]-5-fluoro-N-[[4-(methylsulfonylmethyl)tetrahydropyran-4-yl]methyl]pyrimidin-4-amine]
< 1000 nM	>20 % inhibition	>50 % inhibition	CC(=O)N1CCC(F)(CNc2ncnc(N3CCOC[C@@H]3c3ccc(C(F)(F)F)cc3)c2F)CC1 [Example 262, 1-[4-fluoro-4-[[[5-fluoro-6-[(3S)-3-[4-(trifluoromethyl)phenyl]morpholin-4-yl]pyrimidin-4-yl]amino]methyl]-1-piperidyl]ethanone]
< 500 nM	>20 % inhibition	>80 % inhibition	Fc1c(NCC2(F)CCOCC2)ncnc1N1CCOC[C@@H]1c1ccc(C(F)(F)F)cc1 [Example 264, 5-fluoro-N-[(4-fluorotetrahydropyran-4-yl)methyl]-6-[(3S)-3-[4-(trifluoromethyl)phenyl]morpholin-4-yl]pyrimidin-4-amine]
< 500 nM	>80 % inhibition	>80 % inhibition	CS(=O)(=O)N1CCC(F)(CNc2ncnc(N3CCOC[C@@H]3c3ccc(C(F)(F)F)cc3)c2F)CC1 [Example 266, 5-fluoro-N-[(4-fluoro-1-methylsulfonyl-4-piperidyl)methyl]-6-[(3S)-3-[4-(trifluoromethyl)phenyl]morpholin-4-yl]pyrimidin-4-amine]
